{
  "source": "patent US20250051324A1",
  "about": "“PARP INHIBITOR, PHARMACEUTICAL COMPOSITION COMPRISING SAME, AND USE THEREOF” (KEYTHERA (SUZHOU) BIO-PHARMACEUTICALS CO., LIMITED, priority 2021, published 2025)",
  "key": {"[1]": {"assay": "Liver microsome metabolism assay", "settings": "CD1, mouse, liver microsomes", "method": "Experimental Materials: Mixed CD1 mouse liver microsomal enzyme protein was purchased from Xenotech (#M1000), and NADPH was purchased from Abmole (#M9076).\n1. To the liver microsomal enzyme reaction system, 210 μL of phosphate buffer was added, followed by 12.5 μL of liver microsomal enzyme at a concentration of 20 mg/mL. Then, 25 μL of NADPH at a concentration of 10 mM was added to the system, mixed well, and incubated in a 37° C. water bath with shaking for 10 minutes.\n2. The test compound, stored at a concentration of 10 mM, was diluted to 100 μM with DMSO. Then, 2.5 μL of the diluted test compound was added to the reaction system, mixed well, and incubated in a 37° C. water bath with shaking.\n3. At 0.5, 5, 10, 20, 30, and 60 minutes, 25 μL of the enzyme reaction mixture was taken and added to 125 μL of cold acetonitrile containing dexamethasone as an internal standard. The mixture was centrifuged at 4000 g for 20 minutes, and the supernatant was mixed with an equal volume of distilled water. The mixed sample was then subjected to quantitative analysis by liquid chromatography-mass spectrometry.\n4. Calculation of in vitro drug metabolism half-life and drug clearance rate:\nt1/2=−0.693/k. (k: the slope of the linear regression of the natural logarithm of the percentage of drug remaining versus incubation time)."}, "[2]": {"molecular_target": "PARP1 (Homo sapiens (Human), UniProt P09874)", "sequence (P09874 whole entry)": "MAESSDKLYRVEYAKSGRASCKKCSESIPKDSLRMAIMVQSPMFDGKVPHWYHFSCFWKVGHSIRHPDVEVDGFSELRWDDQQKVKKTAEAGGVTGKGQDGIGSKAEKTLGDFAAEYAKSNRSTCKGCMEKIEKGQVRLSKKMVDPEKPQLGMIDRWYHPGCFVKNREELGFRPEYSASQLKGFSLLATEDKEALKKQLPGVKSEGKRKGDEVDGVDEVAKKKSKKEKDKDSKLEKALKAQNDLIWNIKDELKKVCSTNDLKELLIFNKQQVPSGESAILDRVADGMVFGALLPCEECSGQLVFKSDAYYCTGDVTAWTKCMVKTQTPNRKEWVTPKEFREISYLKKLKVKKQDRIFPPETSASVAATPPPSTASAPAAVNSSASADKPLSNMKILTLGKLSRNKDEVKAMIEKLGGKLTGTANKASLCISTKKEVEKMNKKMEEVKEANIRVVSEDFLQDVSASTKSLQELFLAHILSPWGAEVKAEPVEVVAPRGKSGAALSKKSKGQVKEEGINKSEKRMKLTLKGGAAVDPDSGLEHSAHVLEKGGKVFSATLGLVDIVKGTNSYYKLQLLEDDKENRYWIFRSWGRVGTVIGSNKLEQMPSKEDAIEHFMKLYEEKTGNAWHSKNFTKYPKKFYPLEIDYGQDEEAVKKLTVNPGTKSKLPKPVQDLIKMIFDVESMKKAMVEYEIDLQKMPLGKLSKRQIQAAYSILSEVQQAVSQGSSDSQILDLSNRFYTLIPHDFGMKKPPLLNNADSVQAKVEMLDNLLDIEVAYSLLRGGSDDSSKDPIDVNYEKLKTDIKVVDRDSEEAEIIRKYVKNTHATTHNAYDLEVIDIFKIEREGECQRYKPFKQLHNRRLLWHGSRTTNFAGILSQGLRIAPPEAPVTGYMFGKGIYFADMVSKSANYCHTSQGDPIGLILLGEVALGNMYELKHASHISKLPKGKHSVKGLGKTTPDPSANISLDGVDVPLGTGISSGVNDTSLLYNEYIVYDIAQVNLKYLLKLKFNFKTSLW", "assay": "PARP enzyme activity assay (PARP1 chemiluminescent assay kit)", "type": "biochemical", "settings": "enzyme inhibitory activity, read-out: PARP-1 IC50", "in_short": "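Chemiluminescent kit measuring PARP1 poly(ADP-ribosylation) of plate-coated histones in presence of activated DNA; compounds in 1:3 serial dilution, top 10 μM before 10-fold buffer dilution. Enzyme (2.5 ng/μL added) reacted 60 min at room temperature, detected by streptavidin-HRP luminescence; IC50 from log-concentration vs % inhibition.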"}, "[3]": {"system": "human breast cancer (MDA-MB-436) cell line", "assay": "Mouse CDX tumor model (MDA-MB-436 subcutaneous xenograft)", "type": "in vivo", "settings": "for Tumor Growth Inhibition Rate (TGI): 28 days", "description": "Test Objective: The efficacy of the compounds was evaluated in a subcutaneous xenograft model of human breast cancer (MDA-MB-436) cell line in mice.\nTest Compounds: Olaparib, Compound 1\nExperimental Animals: Female NOD SCID mice, 4-5 weeks old, purchased from Nanjing Jicui.\nHousing and Management: The experimental animals were housed in SPF-grade, temperature- and humidity-controlled clean rooms, using individually ventilated cages (IVC) with no more than 5 mice per cage. Temperature/humidity was controlled within the range of (23±3)° C./40-70%. Feed and water: SPF-grade mouse feed, sterilized by cobalt-60 irradiation. Drinking water was ultrafiltered and autoclaved. Animals had free access to sterile food and water. Animal identification: ear tags.\nTumor Cell Line and Tumor Model: MDA-MB-436 cells (Nanjing Cobioer Biotechnology Co., Ltd., Cat. No: CBP60385) were cultured in vitro in DMEM complete medium containing 10% fetal bovine serum, 1% penicillin-streptomycin, 1% insulin, and 16 μg/mL glutathione (37° C., 5% CO2). When the cells met the requirements for the in vivo efficacy experiment, they were collected, counted, and prepared into a PBS cell suspension. Each mouse (5-6 weeks old NOD SCID) was inoculated subcutaneously on the right flank with 0.9×10^7 cells. Tumor volume was measured and calculated three times a week after inoculation. When the tumor volume reached approximately 200-300 mm^3, the mice were grouped for administration.\nExperimental Groups: The experiment was divided into the following groups: vehicle control group; Olaparib 100 mg/kg group; Compound 1 0.1 mg/kg group; Compound 1 0.3 mg/kg group; and Compound 1 1.0 mg/kg group. All groups were administered orally by gavage once daily. […] After 28 days of administration, the tumor volume was used to calculate the tumor growth inhibition rate (TGI %), and the tumor inhibition effect was statistically analyzed using software such as Excel, etc."}},
  "data": [
    {"smiles": "CNC(=O)c1ccc(N2CCN(Cc3cnc4c(C)c(C(F)(F)F)c(=O)[nH]c4c3)CC2)cn1", "note": "[Compound 1, N-methyl-5-(4-((8-methyl-6-oxo-7-(trifluoromethyl)-5,6-dihydro-1,5-naphthyridin-3-yl)methyl)piperazin-1-yl)picolinamide]", "values": [
      {"measurement": "microsomal CLint at 1 µM", "setting": "[1]", "value": 0.32, "unit": "µL/min/mg"},
      {"measurement": "IC50", "setting": "[2]", "value": 2.78, "unit": "nM"},
      {"measurement": "Tumor Growth Inhibition Rate (TGI)", "setting": "[3]; 0.1 mg/kg oral once daily", "value": 89, "unit": "%"},
      {"measurement": "Tumor Growth Inhibition Rate (TGI)", "setting": "[3]; 0.3 mg/kg oral once daily", "value": 113, "unit": "%"},
      {"measurement": "Tumor Growth Inhibition Rate (TGI)", "setting": "[3]; 1.0 mg/kg oral once daily", "value": 115, "unit": "%"},
      {"measurement": "Body weight vs vehicle control group", "setting": "[3]; MDA-MB-436 model, all treatment groups", "value": "no significant difference"}
    ]}
  ]
}
